Measurements reported in patent US10676438B2, “KCNQ2-5 channel activator” (Ono Pharmaceutical Co., Ltd., priority 2014, dated 2020).
Converted amounts (≈) assume the structure as drawn.

Assays:
Human KCNQ2/3 channel = Human KCNQ2/3 channel (Homo sapiens (Human), UniProt O43525+O43526); assay: Opening action with respect to KCNQ2/3 channel by depolarization stimulation (thallium influx, FLIPR); type: cell-based; settings: concentration giving 50% of maximum reaction of retigabine (10 μM); human KCNQ2/3 expression CHO-DHFR- cells; 5 mM potassium and 0.5 mM thallium; read-out: KCNQ2/3 ECrtg50
How it was run: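 CHO-DHFR- cells expressing human KCNQ2/3, loaded with FluxOR thallium dye 60 min at room temperature. Compound added 5 min before depolarisation with 5 mM K+ and 0.5 mM Tl+; fluorescence change over 180 s read on FLIPR. ECrtg50 is the concentration giving 50% of the maximal response to 10 μM retigabine.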

[1] = test system: urinary bladder extracted from rat; assay: Relaxing action on urinary bladder extracted from rat (rat Magnus test); settings: concentration at which tension change rate is -20%; carbachol 1 μM-induced contraction of rat urinary bladder strips
Protocol: Female Jcl Wistar rats (CLEA Japan, Inc., body weight in use: 170 to 200 g) were anesthetized by intraperitoneal administration of about 40 mg/kg of pentobarbital (Somnopentyl, Schering Plough Animal Health Corporation), and killed by bloodletting, followed by abdominal incision to extract the urinary bladder. Immediately, the extracted urinary bladder was immersed in ice-cooled Krebs buffer (Krebs Ringer bicarbonate buffer (Sigma-Aldlich Co.) containing sodium hydrogencarbonate (final concentration: 15 mM) and calcium chloride (final concentration: 2.5 mM)) which had been saturated with a mixed gas (95% O2, 5% CO2).
The urinary bladder bodies were cut in the longitudinal direction to prepare strip specimens (about 10×3 mm) on ice. Immediately, the prepared specimens were suspended in a Magnus tube with 500 mg of tension loaded. The tube was filled with Krebs buffer (37° C.) aerated with a mixed gas. Note here that specimens were prepared within 24 hours after extraction of the tissue.
When one hour or more had passed after the specimen was suspended, 2.5M KCl was added so that the final concentration became 100 mM, specimens showing contraction reaction were used.
Carbachol (a contraction-inducing substance) at the concentration of contraction of 1 μM was used to induce contraction. […] After the contraction reaction was stabilized, a physiological salt solution or the compound of the present invention was added in a cumulative manner from low concentration such that the final concentration became 1, 10, 100 nM, 1 and 10 μM.
The tension (mg) of the extracted urinary bladder was employed as an evaluation parameter. The tension was read by using analysis software WAVE THERMO 1000. Tension after addition of the contraction-inducing substance was set to 0%. The change rate of the tension after addition of the compound of the present invention relative to the tension after addition of the contraction-inducing substance was defined as tension change rate (%). The tension change rate (%) was adopted as an evaluation indicator. The tension change rate (%) is calculated from the following formula. Tension change rate (%)={Tension after addition of compound of the present invention and the like (mg)−Tension before addition of contraction-inducing substance (mg)}/{Tension after addition of contraction-inducing substance (mg)−Tension before addition of contraction-inducing substance (mg)}×100−100
The value at which the tension change rate (%) was −20% was calculated as IC20, and the value was adopted as an indicator of the relaxing action of the extracted urinary bladder.

[2] = Solubility test (DMSO precipitation method, Pharmacopoeia of Japan elution test second solution); type: physicochemical; settings: aqueous buffer, kinetic from dmso stock; Pharmacopoeia of Japan elution test second solution pH=6.8, room temperature, five hours; quantitation range 5 to 100 μM
How it was run: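 Test compound from 10 mM DMSO stock added to JP elution test second solution (pH 6.8), stirred 5 h at room temperature, then suction-filtered. Filtrate diluted in acetonitrile with internal standard and quantified by LC-MS/MS against a calibration curve (quantitation range 5 to 100 μM).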

[3] = Evaluation of stability in human liver microsome; type: in vitro ADME; settings: human, 15 min, 5 μmol/L, pH 7.4
Protocol: A test compound (10 mmol/L DMSO solution, 5 μL) was diluted with 50% acetonitrile aqueous solution (195 μL) to prepare 0.25 mmol/L solution.
To a reactor vessel which had been warmed to 37° C. in advance, 0.5 mg/mL of human liver microsome (Xenotech) and 245 μL of 0.1 M phosphate buffer solution (pH 7.4) including NADPH-Co-factor (BD Biosciences) were added, followed by preincubation for five minutes. Then, the above-mentioned test compound solution (5 μL) was added so as to start reaction (final concentration: 5 μmol/L). Immediately after the start, 20 μL was harvested and added to 180 μL of acetonitrile including an internal standard substance (warfarin) to stop the reaction. This solution (20 μL) was stirred with 180 μL of 50% acetonitrile aqueous solution on a plate equipped with a deproteinization filter. Then, the resulting mixture solution was subjected to suction filtration. The filtrate was adopted as a standard sample.
The above-mentioned reaction solution was incubated at 37° C. for 15 minutes, and 20 μL of the solution was added to 180 μL of cooled acetonitrile (including warfarin that is an internal standard substance) to stop the reaction. This solution (20 μL) was stirred with 180 μL of 50% acetonitrile aqueous solution on a plate equipped with a deproteinization filter, and then the resulting mixture solution was subjected to suction filtration. The filtrate was adopted as a reaction sample.
Residual rate (%) was obtained as follows: 1 μL of the sample solution was infused into LC-MS/MS (Discovery Max manufactured by Thermo Scientific), and a quotient obtained by dividing a peak area ratio of the reaction sample (peak area of test compound/peak area of internal standard substance) was divided by the peak area ratio of the standard sample was multiplied by 100.

hERG channel = hERG channel (Homo sapiens (Human), UniProt Q12809); assay: Evaluation of action on hERG IKr current (patch-clamp); type: cell-based; settings: HEK293 cell overexpressing hERG, maximum tail current, 10 minutes after application; read-out: IC50 (50% inhibitory activity of hERG channel)
hERG channel, sequence (Q12809 whole entry): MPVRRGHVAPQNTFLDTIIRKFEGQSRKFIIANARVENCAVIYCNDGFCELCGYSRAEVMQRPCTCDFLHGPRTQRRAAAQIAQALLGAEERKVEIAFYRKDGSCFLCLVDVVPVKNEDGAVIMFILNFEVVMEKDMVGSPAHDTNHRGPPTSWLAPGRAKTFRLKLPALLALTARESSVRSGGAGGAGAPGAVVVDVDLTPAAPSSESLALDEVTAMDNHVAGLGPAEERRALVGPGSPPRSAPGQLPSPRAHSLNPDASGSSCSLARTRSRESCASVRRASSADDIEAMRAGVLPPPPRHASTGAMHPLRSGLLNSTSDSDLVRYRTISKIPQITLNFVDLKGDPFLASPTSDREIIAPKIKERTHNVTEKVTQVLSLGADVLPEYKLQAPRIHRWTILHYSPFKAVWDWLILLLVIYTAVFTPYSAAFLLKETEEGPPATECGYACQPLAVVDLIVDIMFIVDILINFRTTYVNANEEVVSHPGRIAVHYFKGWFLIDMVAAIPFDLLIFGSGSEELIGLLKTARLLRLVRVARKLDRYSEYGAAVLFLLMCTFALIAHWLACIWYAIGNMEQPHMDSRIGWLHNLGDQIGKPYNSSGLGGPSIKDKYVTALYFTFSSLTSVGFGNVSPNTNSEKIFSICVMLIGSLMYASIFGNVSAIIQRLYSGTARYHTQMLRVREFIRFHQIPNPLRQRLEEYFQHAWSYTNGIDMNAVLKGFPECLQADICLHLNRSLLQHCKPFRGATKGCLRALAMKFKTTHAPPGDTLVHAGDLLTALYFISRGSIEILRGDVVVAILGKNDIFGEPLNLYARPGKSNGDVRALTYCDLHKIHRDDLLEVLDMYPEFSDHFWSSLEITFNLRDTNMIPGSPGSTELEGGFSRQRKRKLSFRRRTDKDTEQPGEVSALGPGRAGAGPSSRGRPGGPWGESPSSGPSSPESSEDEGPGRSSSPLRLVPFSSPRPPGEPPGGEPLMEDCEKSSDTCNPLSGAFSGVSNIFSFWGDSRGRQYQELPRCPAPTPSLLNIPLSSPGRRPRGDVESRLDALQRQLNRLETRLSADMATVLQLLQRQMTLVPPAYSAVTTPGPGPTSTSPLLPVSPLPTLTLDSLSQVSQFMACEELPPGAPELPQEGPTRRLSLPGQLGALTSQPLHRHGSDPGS
Protocol: Using HEK293 cell overexpressing a human ether-a-go-go-related gene (hERG), the maximum tale current of the hERG IKr current induced by redepolarization pulse subsequent to depolarization pulse was measured by a patch-clamp method.

Compound	EC50 (Human KCNQ2/3 channel) [nM]	solubility at 5 h [2] [µM]	Residual rate [3] [%]	IC20 [1] [nM]	IC50 (hERG channel) [nM]
O=C(NCc1cnc(C(F)(F)F)nc1)Nc1c(Cl)cc([C@@H](O)C(F)(F)F)cc1Cl [Example 32 (3), 1-{2,6-dichloro-4-[(1R)-2,2,2-trifluoro-1-hydroxyethyl]phenyl}-3-{[2-(trifluoromethyl)-5-pyrimidinyl]methyl}urea]	500	100 (≈ 46.3 µg/mL)	100	100	> 10000
O=C(NCc1cnc(C(F)(F)F)s1)Nc1c(Cl)cc([C@@H](O)C(F)(F)F)cc1Cl [Example 33, 1-{2,6-dichloro-4-[(1R)-2,2,2-trifluoro-1-hydroxyethyl]phenyl}-3-{[2-(trifluoromethyl)-1,3-thiazole-5-yl]methyl}urea]	40	91 (≈ 42.6 µg/mL)	100	30	> 10000
O=C(NCc1cnc(C(F)(F)F)s1)Nc1c(Cl)cc([C@H](O)C(F)(F)F)cc1Cl [Example 36, 1-{2,6-dichloro-4-[(1S)-2,2,2-trifluoro-1-hydroxyethyl]phenyl}-3-{[2-(trifluoromethyl)-1,3-thiazole-5-yl]methyl}urea]	30	44 (≈ 20.6 µg/mL)	100	10	> 10000

Further molecules by falling EC50 (Human KCNQ2/3 channel), results first:

EC50 (Human KCNQ2/3 channel) [nM]	solubility at 5 h [2] [µM]	Residual rate [3] [%]	Compound	IC20 [1] [nM]	IC50 (hERG channel) [nM]
300	87 (≈ 40.3 µg/mL)	100	O=C(NCc1cnc(C(F)(F)F)nc1)Nc1c(Cl)cc([C@H](O)C(F)(F)F)cc1Cl [Example 35 (3), 1-{2,6-dichloro-4-[(1S)-2,2,2-trifluoro-1-hydroxyethyl]phenyl}-3-{[2-(trifluoromethyl)-5-pyrimidinyl]methyl}urea]	100	> 10000
200	77 (≈ 35.7 µg/mL)	100	O=C(NCc1ncc(C(F)(F)F)cn1)Nc1c(Cl)cc([C@@H](O)C(F)(F)F)cc1Cl [Example 32 (4), 1-{2,6-dichloro-4-[(1R)-2,2,2-trifluoro-1-hydroxyethyl]phenyl}-3-{[5-(trifluoromethyl)-2-pyrimidinyl]methyl}urea]	200	> 10000
